The values below come from patent US4191753A, “Anti-hypertensive peptide analogs” (University of Miami, priority 1978, dated 1980).

For data set [1], the system named is patients. As to conditions: cited from earlier work.
For data set [2] the following is noted: cited from earlier work.
Data set [3] has as its target T1, human urinary angiotensin converting enzyme (Homo sapiens, UniProt P12821).
T1 construct: human urinary angiotensin converting enzyme, prepared as described by Ryan, J., et al; from tissue; host or cells: human urine
The data set can be described thus: Inhibition of hydrolysis of [3H]benzoyl-Gly-His-Leu by human urinary angiotensin converting enzyme. Conditions: [3H]benzoyl-Gly-His-Leu 100 μM (approximately one-half of Km), 37° C., 15 min., pH 8.0; read-out: I50. Format: biochemical. On the procedure:
ΔPro^3 -BPP9a, ΔPro^5 -BPP9a, ΔPro^8 -BPP9a, and ΔPro^9 -BPP9a were each compared with BPP9a (<Glu-Trp-Pro-Arg-Pro-Gln-Ile-Pro-Pro; also known as SQ 20,881) for their abilities to inhibit the hydrolysis of [^3 H]benzoyl-Gly-His-Leu by human urinary angiotensin converting enzyme, prepared as described by Ryan, J., et al., Tissue and Cell 10, 555 (1978). A standard amount of enzyme (the amount required to hydrolyze 8% of substrate during the course of incubation at 37° C. for 15 min.) was incubated with [^3 H]benzoyl-Gly-His-Leu in a final reaction volume of 100 μl or 110 μl. The reaction mixture contained 0.05 M Hepes buffer, pH 8.0, 0.1 M NaCl, 0.75 M Na2 SO4, [^3 H]-benzoyl-Gly-His-Leu (100 μM at 10 mCi/mmole, enzyme and varying concentrations of inhibitor, from […]. Net enzyme activity was measured in terms of the rate of formation of [^3 H]benzoyl-glycine (^3 H-hippuric acid). Under the conditions of the assay, the initial substrate concentration is approximately one-half of Km. Results are expressed as I50 values, i.e., the concentration of a given inhibitor required to reduce enzyme activity by half.
These factors include the source of enzyme, its purity, the substrate used and its concentration, and the composition of the assay buffer. […] For example, Cushman, et al., supra, reported an I50 value for BPP9a of approximately 1000 nM, whereas Dorer, F.E., et al., Biochim. Biophys. Acta 429, 220 (1976) reported I50 values in the range 12nM-15nM. The sources of such variations are not known.

Data set [4] deals with ACE (Homo sapiens, UniProt P12821). The experiment in a line: biochemical.
Data set [5] addresses T2, ACE (Oryctolagus cuniculus, UniProt P12822).
T2 sequence (P12822 34-1310): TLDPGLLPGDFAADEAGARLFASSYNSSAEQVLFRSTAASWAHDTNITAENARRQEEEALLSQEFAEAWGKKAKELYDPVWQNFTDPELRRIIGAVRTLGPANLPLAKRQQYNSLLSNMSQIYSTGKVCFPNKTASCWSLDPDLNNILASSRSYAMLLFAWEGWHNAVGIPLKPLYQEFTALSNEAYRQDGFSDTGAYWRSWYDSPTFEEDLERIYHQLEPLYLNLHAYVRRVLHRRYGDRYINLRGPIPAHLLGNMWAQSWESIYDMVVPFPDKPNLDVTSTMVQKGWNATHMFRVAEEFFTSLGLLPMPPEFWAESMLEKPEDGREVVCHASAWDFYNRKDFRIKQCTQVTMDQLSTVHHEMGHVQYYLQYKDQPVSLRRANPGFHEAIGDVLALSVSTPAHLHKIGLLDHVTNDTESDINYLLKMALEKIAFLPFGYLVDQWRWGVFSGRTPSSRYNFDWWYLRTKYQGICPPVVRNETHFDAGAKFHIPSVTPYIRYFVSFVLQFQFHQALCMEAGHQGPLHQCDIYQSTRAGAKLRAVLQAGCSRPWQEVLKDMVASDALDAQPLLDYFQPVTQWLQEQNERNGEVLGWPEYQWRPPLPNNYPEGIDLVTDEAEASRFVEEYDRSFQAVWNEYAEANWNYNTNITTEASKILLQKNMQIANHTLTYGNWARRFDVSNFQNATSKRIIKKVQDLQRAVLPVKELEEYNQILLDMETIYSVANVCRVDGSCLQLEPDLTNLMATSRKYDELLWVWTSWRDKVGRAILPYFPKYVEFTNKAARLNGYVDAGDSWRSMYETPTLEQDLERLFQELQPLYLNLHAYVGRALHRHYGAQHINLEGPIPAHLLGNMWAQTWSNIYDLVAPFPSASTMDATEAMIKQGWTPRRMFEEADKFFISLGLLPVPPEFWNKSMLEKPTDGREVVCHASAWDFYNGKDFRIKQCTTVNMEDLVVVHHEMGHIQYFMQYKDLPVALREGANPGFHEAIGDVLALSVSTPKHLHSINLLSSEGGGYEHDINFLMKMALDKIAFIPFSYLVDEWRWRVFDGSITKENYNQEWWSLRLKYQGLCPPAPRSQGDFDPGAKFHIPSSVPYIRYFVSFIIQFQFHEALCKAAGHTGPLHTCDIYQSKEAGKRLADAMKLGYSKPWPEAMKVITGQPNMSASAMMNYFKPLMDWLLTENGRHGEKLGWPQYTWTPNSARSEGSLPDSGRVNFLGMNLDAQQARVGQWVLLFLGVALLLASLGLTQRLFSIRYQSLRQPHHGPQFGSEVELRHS
As to conditions: read-out: I50 reported by Cushman, et al.; literature value; cited from earlier work.

In data set [6] the test system is patients with hypertension. As to conditions: cited from earlier work.
For data set [7], the system named is guinea pigs. The experiment in a line: Mean arterial blood pressure of guinea pigs anesthetized with pentobarbital. Conditions: single intravenous injection, 2 mg; for ill effects in test animals: blood pressure reduced to shock levels; for abnormalities in the electrocardiogram: Lead II monitored. Format: in vivo, guinea pig. On the procedure:
ΔPro^3 -BPP9a and ΔPro^5 -BPP9a were tested for their ability to reduce mean arterial blood pressure of guinea pigs anesthetized with pentobarbital, an anesthetic thought to activate the renin-angiotensin system. Female guinea pigs (500-700 g body wgt.) of the Ft. Detrick-Hartley strain were injected intraperitoneally with pentobarbital, 30 mg/kg. Tracheostomy was performed, and the animals were ventilated with a small animal respirator. A polyethylene cannula was inserted into a femoral vein, and heparin, 1,000 units, was injected. A second cannula was inserted into a femoral artery for measurement of arterial blood pressure. The arterial cannula was connected to a pressure transducer, and the transducer was connected to a polygraph. Lead II of the electrocardiogram was monitored continuously.
Each of three guinea pigs received a single intravenous injection of ΔPro^3 -BPP9a, 2 mg in 0.25 ml of 0.9% (w/v) NaCl. On average, mean arterial blood pressure fell by 57.2% (81.7 mmHg to 35 mmHg). The maximum reduction was achieved within 15 sec. of injection. Each of seven guinea pigs received a single intravenous injection of ΔPro^5 -BPP9a, 2 mg in 0.25 ml of saline.

Where a SMILES comes first, the peptide text is derived from it.

T1 sequence (P12821 30-1306): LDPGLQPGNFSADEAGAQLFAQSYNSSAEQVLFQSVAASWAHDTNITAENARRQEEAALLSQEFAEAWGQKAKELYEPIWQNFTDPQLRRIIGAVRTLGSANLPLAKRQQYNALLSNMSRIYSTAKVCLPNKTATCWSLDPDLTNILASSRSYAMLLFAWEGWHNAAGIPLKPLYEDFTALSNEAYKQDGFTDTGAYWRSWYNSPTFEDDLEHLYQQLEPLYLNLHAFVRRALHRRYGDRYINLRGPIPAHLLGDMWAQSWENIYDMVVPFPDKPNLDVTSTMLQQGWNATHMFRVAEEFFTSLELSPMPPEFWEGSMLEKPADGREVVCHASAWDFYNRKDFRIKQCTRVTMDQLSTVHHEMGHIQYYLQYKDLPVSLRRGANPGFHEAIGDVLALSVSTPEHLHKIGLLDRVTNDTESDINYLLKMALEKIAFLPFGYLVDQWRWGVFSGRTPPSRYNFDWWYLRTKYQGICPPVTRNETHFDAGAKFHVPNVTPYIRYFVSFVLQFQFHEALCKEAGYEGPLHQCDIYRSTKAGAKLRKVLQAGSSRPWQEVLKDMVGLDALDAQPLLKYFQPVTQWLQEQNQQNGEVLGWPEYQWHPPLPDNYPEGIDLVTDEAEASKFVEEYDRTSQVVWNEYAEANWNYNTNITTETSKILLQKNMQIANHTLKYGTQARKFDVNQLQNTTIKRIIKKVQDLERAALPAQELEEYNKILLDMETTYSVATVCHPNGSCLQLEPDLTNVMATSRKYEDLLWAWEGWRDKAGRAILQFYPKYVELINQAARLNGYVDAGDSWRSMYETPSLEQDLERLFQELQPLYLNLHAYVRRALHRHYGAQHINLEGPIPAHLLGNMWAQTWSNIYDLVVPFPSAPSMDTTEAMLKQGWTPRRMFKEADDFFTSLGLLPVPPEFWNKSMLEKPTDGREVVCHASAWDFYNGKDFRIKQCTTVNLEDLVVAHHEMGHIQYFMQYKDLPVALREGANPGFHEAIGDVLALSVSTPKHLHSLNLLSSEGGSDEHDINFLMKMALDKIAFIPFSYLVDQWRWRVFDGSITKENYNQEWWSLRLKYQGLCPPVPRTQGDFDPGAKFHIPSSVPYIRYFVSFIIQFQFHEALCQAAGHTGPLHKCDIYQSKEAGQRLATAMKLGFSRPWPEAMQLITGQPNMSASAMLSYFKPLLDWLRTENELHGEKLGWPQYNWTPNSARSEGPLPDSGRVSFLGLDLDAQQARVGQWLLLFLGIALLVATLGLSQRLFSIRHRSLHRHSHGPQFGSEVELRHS
Sequence of ACE (Homo sapiens, UniProt P12821) (P12821 30-1306, species assumed): as the sequence (P12821 30-1306) above

In the case of `C[C@H](CS)C(=O)N1CCCC1C(=O)O` (stereo in doubt) [SQ 14,225, D-2-methyl-3-mercaptopropanoyl-L-proline], in data set [1] (human, in vivo), the “patients known to benefit from ACE inhibitors who respond adversely” value is at most 11%. In addition, the oral effectiveness entry in data set [1] (oral) was “effective orally”. The stability in solution result in data set [2] is on record as “instability of the drug in solution due to disulfide dimer formation”.

As for `CC[C@H](C)[C@H](NC(=O)[C@H](CCC(N)=O)NC(=O)[C@@H]1CCCN1C(=O)[C@H](CCCNC(=N)N)NC(=O)[C@@H]1CCCN1C(=O)[C@H](Cc1c[nH]c2ccccc12)NC(=O)[C@@H]1CCC(=O)N1)C(=O)N1CCC[C@H]1C(=O)N1CCC[C@H]1C(=O)O` [BPP9a, <Glu-Trp-Pro-Arg-Pro-Gln-Ile-Pro-Pro], the IC50 is 28 nM in data set [3], around 28 nM in data set [4] and around 1000 nM in data set [5]. The “side reactions of the type observed with SQ 14,225, in clinical use of BPP9a” value in data set [6] is reported as “have not been encountered previously”.

The compound `NC(N)=NCCC[C@H](NC(=O)[C@H](Cc1ccccc1)NC(=O)[C@@H]1CCCN1C(=O)[C@H](CO)NC(=O)[C@H](Cc1ccccc1)NC(=O)CNC(=O)[C@@H]1CCCN1C(=O)[C@@H]1CCCN1C(=O)[C@@H](N)CCCN=C(N)N)C(=O)O` [bradykinin, ArgProProGlyPheSerProPheArg] (H-RPPGFSPFR-OH) showed an IC50 in data set [4] of around 500 nM.

For `CC[C@H](C)[C@H](NC(=O)[C@H](CCC(N)=O)NC(=O)[C@@H]1CCCN1C(=O)[C@H](CCCNC(=N)N)NC(=O)[C@@H]1C=CCN1C(=O)[C@H](Cc1c[nH]c2ccccc12)NC(=O)[C@@H]1CCC(=O)N1)C(=O)N1CCC[C@H]1C(=O)N1CCC[C@H]1C(=O)O` [ΔPro^3 -BPP9a, <Glu-Trp-ΔPro-Arg-Pro-Gln-Ile-Pro-Pro], in data set [3], the IC50 worked out at 0.9 nM. Besides, in data set [7], the “increase in heart rate” value is 0-10%, the “ill effects in test animals” value is recorded as “no ill effects” and the “abnormalities in the electrocardiogram” value is on record as “no abnormalities were observed”.

`CC[C@H](C)[C@H](NC(=O)[C@H](CCC(N)=O)NC(=O)[C@@H]1C=CCN1C(=O)[C@H](CCCNC(=N)N)NC(=O)[C@@H]1CCCN1C(=O)[C@H](Cc1c[nH]c2ccccc12)NC(=O)[C@@H]1CCC(=O)N1)C(=O)N1CCC[C@H]1C(=O)N1CCC[C@H]1C(=O)O` [ΔPro^5 -BPP9a, <Glu-Trp-Pro-Arg-ΔPro-Gln-Ile-Pro-Pro]: in data set [3], the IC50 was found to be 0.9 nM. For the same compound, in data set [7], the “increase in heart rate” value is on record as 0-10%, the “ill effects in test animals” value was “no ill effects” and the “abnormalities in the electrocardiogram” value is on record as “no abnormalities were observed”.

As to `CC[C@H](C)[C@H](NC(=O)[C@H](CCC(N)=O)NC(=O)[C@@H]1CCCN1C(=O)[C@H](CCCNC(=N)N)NC(=O)[C@@H]1CCCN1C(=O)[C@H](Cc1c[nH]c2ccccc12)NC(=O)[C@@H]1CCC(=O)N1)C(=O)N1CC=C[C@H]1C(=O)N1CCC[C@H]1C(=O)O` [ΔPro^8 -BPP9a, <Glu-Trp-Pro-Arg-Pro-Gln-Ile-ΔPro-Pro], in data set [3], the IC50 is 60 nM.

With `CC[C@H](C)[C@H](NC(=O)[C@H](CCC(N)=O)NC(=O)[C@@H]1CCCN1C(=O)[C@H](CCCNC(=N)N)NC(=O)[C@@H]1CCCN1C(=O)[C@H](Cc1c[nH]c2ccccc12)NC(=O)[C@@H]1CCC(=O)N1)C(=O)N1CCC[C@H]1C(=O)N1CC=C[C@H]1C(=O)O` [ΔPro^9 -BPP9a, <Glu-Trp-Pro-Arg-Pro-Gln-Ile-Pro-ΔPro], the IC50 in data set [3] turned out to be 0.15 nM.
